The results in this text go back to patent US9790229B2, “Bruton's tyrosine kinase inhibitors” (priority 2009, dated 2017).

The first experiment deals with BTK (Homo sapiens (Human), UniProt Q06187). Put plainly: In vitro BTK kinase assay: BTK-POLYGAT-LS ASSAY.
BTK, sequence (Q06187 whole entry): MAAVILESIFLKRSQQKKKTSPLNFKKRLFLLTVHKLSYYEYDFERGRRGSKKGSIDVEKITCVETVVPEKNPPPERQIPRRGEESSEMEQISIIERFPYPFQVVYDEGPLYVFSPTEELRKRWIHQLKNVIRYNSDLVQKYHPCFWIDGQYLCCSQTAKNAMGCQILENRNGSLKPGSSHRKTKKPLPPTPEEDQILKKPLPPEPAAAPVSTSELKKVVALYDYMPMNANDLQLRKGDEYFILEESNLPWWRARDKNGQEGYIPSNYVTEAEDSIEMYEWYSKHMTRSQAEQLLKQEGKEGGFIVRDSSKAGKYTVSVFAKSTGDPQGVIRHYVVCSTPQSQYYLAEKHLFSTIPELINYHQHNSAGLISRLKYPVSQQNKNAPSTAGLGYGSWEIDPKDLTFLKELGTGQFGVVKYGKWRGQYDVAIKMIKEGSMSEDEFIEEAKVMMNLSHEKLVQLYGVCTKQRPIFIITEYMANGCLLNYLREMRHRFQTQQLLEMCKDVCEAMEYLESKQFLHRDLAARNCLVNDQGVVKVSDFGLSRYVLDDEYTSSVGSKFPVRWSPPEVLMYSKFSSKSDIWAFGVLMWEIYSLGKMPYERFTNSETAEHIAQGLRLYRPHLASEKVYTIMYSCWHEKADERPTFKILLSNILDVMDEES
Conditions: not given
Regarding `c1ccc(Nc2nc3ccc(C4CCCN(c5ncnc6[nH]ccc56)C4)cc3[nH]2)cc1` (stereo not drawn) [compound 105, 6-(1-(7H-pyrrolo[2,3-d]pyrimidin-4-yl)piperidin-3-yl)-N-phenyl-1H-benzo[d]imidazol-2-amine], the IC50 – broadly, the concentration that inhibits the measured activity by half – was 1 to 10 µM. Same read-out and setting: with `O=C(Nc1cccc(C2CCCN(c3ncnc4[nH]ccc34)C2)c1)Nc1ccccc1C(F)(F)F` (stereo not drawn) [compound 173] the figure was 0.1 to 0.999 µM. Still for that read-out and setting: then `Nc1ncnc(N2CCCC(c3cccc(NC(=O)Nc4ccccc4)c3)C2)c1Cl` (stereo not drawn) [Cmpd 99, 1-(3-(1-(6-Amino-5-chloropyrimidin-4-yl)piperidin-3-yl)phenyl)-3-phenylurea], with 1 to 10 µM. Same read-out and setting: then `CNc1ncnc(N2CCC[C@@H](N3CCCC(Nc4cc(F)cc(Cl)c4)C3=O)C2)c1F` (stereo partly drawn) [compound 286, (3′R)-3-(3-Chloro-5-fluorophenylamino)-1′-(5-fluoro-6-(methylamino)pyrimidin-4-yl)-1,3′-bipiperidin-2-one], with 1 to 10 µM; and `O=C(Nc1cccc(C2CCCN(c3ncnc4[nH]ccc34)C2)c1)Nc1ccccc1C1CCCC1` (stereo not drawn) [Cmpd 48, 1-(3-(1-(7H-pyrrolo[2,3-d]pyrimidin-4-yl)piperidin-3-yl)phenyl)-3-(2-cyclopentylphenyl)urea], with 0.1 to 0.999 µM. `O=C(Nc1ccccc1)Nc1csc(C2CCCN(c3ncnc4[nH]ccc34)C2)n1` (stereo not drawn) [compound 106, 1-(2-(1-(7H-pyrrolo[2,3-d]pyrimidin-4-yl)piperidin-3-yl)thiazol-4-yl)-3-phenylurea]: the IC50 fell in the range of 1 to 10 µM.

In turn, `O=C(NCC1CCCCCC1)Nc1cccc(C2CCCN(c3ncnc4[nH]ccc34)C2)c1` (stereo not drawn) [compound 217] registered a 50% inhibitory concentration (IC50) of 1 to 10 µM. Same read-out and setting: with `O=C1C(Nc2ccccc2)c2ccccc2N1[C@@H]1CCCN(c2ncnc3[nH]ccc23)C1` (stereo partly drawn) [compound 274] the figure was 1 to 10 µM. On the same count and under the same terms, with `O=C(Nc1cccc(C2CCCN(c3ncnc4[nH]ccc34)C2)c1)Nc1c(F)cc(F)cc1N1CCCC1` (stereo not drawn) [Cmpd 49, 1-(3-(1-(7H-pyrrolo[2,3-d]pyrimidin-4-yl)piperidin-3-yl)phenyl)-3-(2,4-difluoro-6-(pyrrolidin-1-yl)phenyl)urea] the figure was below 0.1 µM; with `C[C@H]1CCCN1c1ccccc1NC(=O)Nc1cccc(C2CCCN(c3ncnc4[nH]ccc34)C2)c1` (stereo partly drawn) [compound 188], 1 to 10 µM. Still for that read-out and setting: with `Cc1ccnc(C)c1NC(=O)Nc1cccc(C2CCCN(c3ncnc4[nH]ccc34)C2)c1` (stereo not drawn) [compound 200] the figure was 1 to 10 µM. On to `O=c1nc(Nc2cccc(C3CCCN(c4ncnc5[nH]ccc45)C3)c2)[nH]c2c1CCCC2` (stereo not drawn) [compound 120, 2-(3-(1-(7H-pyrrolo[2,3-d]pyrimidin-4-yl)piperidin-3-yl)phenylamino)-5,6,7,8-tetrahydroquinazolin-4(1H)-one], for which the IC50 lay within 1 to 10 µM. On the same count and under the same terms, with `CC(C)CNC(=O)Nc1cccc(C2CCCN(c3ncnc4[nH]ccc34)C2)c1` (stereo not drawn) [compound 212] the figure was 1 to 10 µM.

The compound `CN(C)[C@@H]1CCN(c2ccccc2NC(=O)Nc2cccc(C3CCCN(c4ncnc5[nH]ccc45)C3)c2)C1` (stereo partly drawn) [compound 210] had an IC50 of 1 to 10 µM. Regarding `N#C/N=C(\Nc1cccc(C2CCCN(c3ncnc4[nH]ccc34)C2)c1)NC1CCCCC1` (stereo not drawn) [Cmpd 75], the half-inhibitory concentration (IC50) was 1 to 10 µM.

The compound `O=C(Nc1cccc(C2CCCN(c3ncnc4[nH]ccc34)C2)c1)NC1CCCC1` (stereo not drawn) [compound 193] showed a half-inhibitory concentration (IC50) of 1 to 10 µM.

As to `O=C(Nc1ccccc1)Nc1cccc(C2CCCN(c3ncnc4[nH]nc(Br)c34)C2)c1` (stereo not drawn) [Cmpd 100, 1-(3-(1-(3-Bromo-1H-pyrazolo[3,4-d]pyrimidin-4-yl)piperidin-3-yl)phenyl)-3-phenylurea], the IC50 was 1 to 10 µM. On the same count and under the same terms, then `O=C(Nc1cccc(C2CCCN(c3ncnc4[nH]ccc34)C2)c1)Nc1ccccc1N1CC[C@@H](F)C1` (stereo partly drawn) [compound 162], with 0.1 to 0.999 µM. In the case of `O=C(Nc1cccc(C2CN(c3ncnc4[nH]ccc34)CCN2CCO)c1)Nc1ccccc1N1CCCC1` (stereo not drawn) [compound 124, 1-(3-(1-(2-hydroxyethyl)-4-(7H-pyrrolo[2,3-d]pyrimidin-4-yl)piperazin-2-yl)phenyl)-3-(2-(pyrrolidin-1-yl)phenyl)urea], the IC50 was in the range of 0.1 to 0.999 µM.

The experiment is the same for the next values; noted with them: read-out: IC50 (10 uM ATP).
In the case of `Nc1ncnc(N2CCC[C@@H](N3CCCC(Nc4cc(Cl)cc(C(F)(F)F)c4)C3=O)C2)c1F` (stereo partly drawn) [compound 308, (3′R)-1′-(6-Amino-5-fluoropyrimidin-4-yl)-3-(3-chloro-5-(trifluoromethyl)phenylamino)-1,3′-bipiperidin-2-one], the half-maximal inhibitory concentration (IC50) was below 0.1 µM.

`Nc1ncnc(N2CCC[C@@H](N3CCC[C@@H](Nc4cc(Cl)cc(C(F)(F)F)c4)C3=O)C2)c1F` [compound 311, (3R,3′R)-1′-(6-Amino-5-fluoropyrimidin-4-yl)-3-(3-chloro-5-(trifluoromethyl)phenylamino)-1,3′-bipiperidin-2-one]: the IC50 is below 0.1 µM.

Still in this experiment, the particulars now being: read-out: IC50 (10 uM ATP); 10 uM ATP; in vitro Btk kinase assay, Example 41.
With `O=C1C(Nc2cc(F)cc(Cl)c2)CCCN1[C@H]1CN(c2ncnc3[nH]ccc23)CC[C@@H]1C(F)(F)F` (stereo partly drawn) [compound 352], the IC50 was below 0.1 µM. Same read-out and setting: then `O=C(Nc1ccccc1)Nc1ccc(C2CCCN(c3ncnc4[nH]ccc34)C2)cc1` (stereo not drawn) [compound 268], with above 10 µM. On to `O=C1[C@@H](Nc2cc(Cl)cc(Cl)c2)CCN1[C@@H]1CCCN(c2ncnc3[nH]ccc23)C1` [compound 357], for which the IC50 was below 0.1 µM. Same read-out and setting: then `O=c1nc(Nc2cccc(C3CCCN(c4ncnc5[nH]ccc45)C3)c2)[nH]c2ccccc12` (stereo not drawn) [compound 119, 2-(3-(1-(7H-pyrrolo[2,3-d]pyrimidin-4-yl)piperidin-3-yl)phenylamino)quinazolin-4(1H)-one], with above 10 µM; and `Cc1ccc(NC(=O)c2ccccc2)cc1C1CCCN(c2ncnc3[nH]ccc23)C1` (stereo not drawn) [Cmpd 80, N-(3-(1-(7H-pyrrolo[2,3-d]pyrimidin-4-yl)piperidin-3-yl)-4-methylphenyl)benzamide], with above 10 µM; and `Nc1ncnc(N2CCC[C@@H](N3CCCC(NCc4ccccc4)C3=O)C2)c1F` (stereo partly drawn) [compound 291, (3′R)-1′-(6-Amino-5-fluoropyrimidin-4-yl)-3-(benzylamino)-1,3′-bipiperidin-2-one], with above 10 µM.

For the compound `C[C@@H]1CCCN1c1cccc(F)c1NC(=O)Nc1cccc(C2CCCN(c3ncnc4[nH]ccc34)C2)c1` (stereo partly drawn) [Cmpd 52, 1-(3-(1-(7H-pyrrolo[2,3-d]pyrimidin-4-yl)piperidin-3-yl)phenyl)-3-(2-fluoro-6-((R)-2-methylpyrrolidin-1-yl)phenyl)urea], the IC50 was below 0.1 µM. The same measure, in the same setting: with `FC(F)(F)c1cccnc1Nc1cccc(C2CCCN(c3ncnc4[nH]ccc34)C2)c1` (stereo not drawn) [compound 143, N-(3-(1-(7H-pyrrolo[2,3-d]pyrimidin-4-yl)piperidin-3-yl)phenyl)-3-(trifluoromethyl)pyridin-2-amine] the figure was above 10 µM; with `CC(C)(C)CNC1CCCN([C@@H]2CCCN(c3ncnc(N)c3F)C2)C1=O` (stereo partly drawn) [compound 292, (3′R)-1′-(6-Amino-5-fluoropyrimidin-4-yl)-3-(neopentylamino)-1,3′-bipiperidin-2-one], above 10 µM; with `CC(C)(C)N/C(=N/C#N)Nc1cccc(C2CCCN(c3ncnc4[nH]ccc34)C2)c1` (stereo not drawn) [Cmpd 78, (Z)-1-(3-(1-(7H-pyrrolo[2,3-d]pyrimidin-4-yl)piperidin-3-yl)phenyl)-3-tert-butyl-2-cyanoguanidine], above 10 µM.

As for `O=C(Nc1cccc(C2CCCN(c3ncnc4[nH]ccc34)C2)c1)Nc1ccc(F)cc1N1CCCC1` (stereo not drawn) [compound 147], the IC50 is below 0.1 µM. Same read-out and setting: with `O=C(Nc1csc(C2CCCN(c3ncnc4[nH]ncc34)C2)n1)Nc1c(F)cc(F)cc1N1CCCC1` (stereo not drawn) [compound 112, 1-(2-(1-(1H-pyrazolo[3,4-d]pyrimidin-4-yl)piperidin-3-yl)thiazol-4-yl)-3-(2,4-difluoro-6-(pyrrolidin-1-yl)phenyl)urea] the figure was below 0.1 µM; with `O=c1c(Nc2ccc(Cl)cc2)c(Nc2cccc(C3CCCN(c4ncnc5[nH]ccc45)C3)c2)c1=O` (stereo not drawn) [Cmpd 70, 3-(3-(1-(7H-pyrrolo[2,3-d]pyrimidin-4-yl)piperidin-3-yl)phenylamino)-4-(4-chlorophenylamino)cyclobut-3-ene-1,2-dione], above 10 µM.

Take `O=C(Nc1cccc(C2CCCN(c3ncnc4[nH]ccc34)C2)c1)c1ccc[nH]1` (stereo not drawn) [compound 14, N-(3-(1-(7H-pyrrolo[2,3-d]pyrimidin-4-yl)piperidin-3-yl)phenyl)-1H-pyrrole-2-carboxamide]: the half-maximal inhibitory concentration (IC50) was above 10 µM. Take `O=c1c(Nc2cccc(Cl)c2)c(Nc2cccc(C3CCCN(c4ncnc5[nH]ccc45)C3)c2)c1=O` (stereo not drawn) [Cmpd 71, 3-(3-(1-(7H-pyrrolo[2,3-d]pyrimidin-4-yl)piperidin-3-yl)phenylamino)-4-(3-chlorophenylamino)cyclobut-3-ene-1,2-dione]: the IC50 was above 10 µM.

As to `O=C(NCC1CCC(C(F)(F)F)CC1)Nc1cccc(C2CCCN(c3ncnc4[nH]ccc34)C2)c1` (stereo not drawn) [compound 257], the IC50 is above 10 µM. In the case of `O=C(Nc1cccc(C2CCCN(c3ncnc4[nH]ccc34)C2)c1)Nc1cnccc1N1CCCC1` (stereo not drawn) [compound 224], the IC50 was above 10 µM.

For the compound `Nc1ncnc(N2CC[C@@H](F)[C@@H](N3CCC[C@@H](Nc4cc(F)cc(Cl)c4)C3=O)C2)c1F` [compound 341, (3R,3′S,4′R)-1′-(6-amino-5-fluoropyrimidin-4-yl)-3-(3-chloro-5-fluorophenylamino)-4′-fluoro-1,3′-bipiperidin-2-one], the 50% inhibitory concentration (IC50) is below 0.1 µM. Same read-out and setting: with `O=C(Nc1ccccc1)Nc1cnc(C2CCCN(c3ncnc4[nH]ccc34)C2)s1` (stereo not drawn) [compound 117, 1-(2-(1-(7H-pyrrolo[2,3-d]pyrimidin-4-yl)piperidin-3-yl)thiazol-5-yl)-3-phenylurea] the figure was above 10 µM; with `N#Cc1c(N)ncnc1N1CCCC(c2nc(NC(=O)Nc3c(F)cc(F)cc3N3CCCC3)cs2)C1` (stereo not drawn) [compound 113, 1-(2-(1-(6-amino-5-cyanopyrimidin-4-yl)piperidin-3-yl)thiazol-4-yl)-3-(2,4-difluoro-6-(pyrrolidin-1-yl)phenyl)urea], below 0.1 µM; with `C[C@H](NC(=O)Nc1cccc(C2CCCN(c3ncnc4[nH]ccc34)C2)c1)c1ccccc1` (stereo partly drawn) [compound 248], above 10 µM.
